According to ChEMBL document CHEMBL5465560, “Selectivity Literature for EUbOPEN Chemogenomic Library” (2024):

What was measured:
[1] = molecular target: Ephrin type-A receptor 2 (Homo sapiens) (UniProt P29317); experiment: Selectivity interaction (KinomeScan (DiscoverX)) EUB0001079a EPHA2; settings: at 1 µM
[2] = molecular target: Glycogen synthase kinase-3 alpha (Homo sapiens, UniProt P49840); experiment: Selectivity interaction (Kinase panel (KiNativ target engagement assay in Jurkat cells)) EUB0001635a GSK3A; assay type: cell-based; settings: Selectivity number of off-targets 0.0, Selectivity number of targets 233.0, Source Knowledge https://www.sciencedirect.com/science/article/pii/S2451945619300674?via%3Dihub, at 1 µM
[3] = molecular target: Mitogen-activated protein kinase kinase kinase kinase 1 (Homo sapiens) (UniProt Q92918); experiment: Selectivity interaction (ActivX KiNativ screen (kinase selectivity in THP-1 cell lysates)) EUB0000639a MAP4K1; assay type: subcellular; settings: lysate, at 1 µM
[4] = molecular target: T1, Tyrosine-protein kinase ZAP-70 (Homo sapiens) (UniProt P43403); experiment: Selectivity interaction (Ambit KINOMEscan and KiNATiv profiling in Jurkat cells) EUB0000090b ZAP70; assay type: cell-based; settings: at 1 µM
T1 sequence (whole entry): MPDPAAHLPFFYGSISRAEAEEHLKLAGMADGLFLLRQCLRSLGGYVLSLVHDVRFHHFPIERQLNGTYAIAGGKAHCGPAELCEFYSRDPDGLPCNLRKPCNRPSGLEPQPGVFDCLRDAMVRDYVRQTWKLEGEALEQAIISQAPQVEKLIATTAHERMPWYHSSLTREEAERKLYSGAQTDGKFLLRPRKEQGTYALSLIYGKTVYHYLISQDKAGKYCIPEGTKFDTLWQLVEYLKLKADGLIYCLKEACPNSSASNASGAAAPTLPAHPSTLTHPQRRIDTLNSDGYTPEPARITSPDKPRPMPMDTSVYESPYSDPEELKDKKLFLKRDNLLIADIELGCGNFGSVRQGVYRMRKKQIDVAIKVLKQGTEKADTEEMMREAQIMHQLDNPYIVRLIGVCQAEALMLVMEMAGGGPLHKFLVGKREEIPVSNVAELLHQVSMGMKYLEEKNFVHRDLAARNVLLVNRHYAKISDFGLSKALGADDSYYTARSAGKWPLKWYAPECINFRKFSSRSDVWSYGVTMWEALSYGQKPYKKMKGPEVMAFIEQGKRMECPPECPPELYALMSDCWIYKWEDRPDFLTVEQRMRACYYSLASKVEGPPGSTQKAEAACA

[5] = molecular target: Casein kinase II subunit alpha (Homo sapiens, UniProt P68400); settings: at 10 µM
[6] = molecular target: Fibroblast growth factor receptor 1 (Homo sapiens, UniProt P11362); experiment: Selectivity interaction (KinomeScan (DiscoverX)) EUB0000607a FGFR1; settings: at 10 µM
[7] = molecular target: Ribosomal protein S6 kinase alpha-5 (Homo sapiens) (UniProt O75582); experiment: Selectivity interaction (SelectScreen profiling (Invitrogen)) EUB0000607a RPS6KA5; settings: at 2 µM
[8] = molecular target: T2, Serine/threonine-protein kinase DCLK2 (Homo sapiens) (UniProt Q8N568); experiment: Selectivity interaction (KinomeScan (DiscoverX)) EUB0000607a DCLK2; settings: at 10 µM
T2 sequence (whole entry): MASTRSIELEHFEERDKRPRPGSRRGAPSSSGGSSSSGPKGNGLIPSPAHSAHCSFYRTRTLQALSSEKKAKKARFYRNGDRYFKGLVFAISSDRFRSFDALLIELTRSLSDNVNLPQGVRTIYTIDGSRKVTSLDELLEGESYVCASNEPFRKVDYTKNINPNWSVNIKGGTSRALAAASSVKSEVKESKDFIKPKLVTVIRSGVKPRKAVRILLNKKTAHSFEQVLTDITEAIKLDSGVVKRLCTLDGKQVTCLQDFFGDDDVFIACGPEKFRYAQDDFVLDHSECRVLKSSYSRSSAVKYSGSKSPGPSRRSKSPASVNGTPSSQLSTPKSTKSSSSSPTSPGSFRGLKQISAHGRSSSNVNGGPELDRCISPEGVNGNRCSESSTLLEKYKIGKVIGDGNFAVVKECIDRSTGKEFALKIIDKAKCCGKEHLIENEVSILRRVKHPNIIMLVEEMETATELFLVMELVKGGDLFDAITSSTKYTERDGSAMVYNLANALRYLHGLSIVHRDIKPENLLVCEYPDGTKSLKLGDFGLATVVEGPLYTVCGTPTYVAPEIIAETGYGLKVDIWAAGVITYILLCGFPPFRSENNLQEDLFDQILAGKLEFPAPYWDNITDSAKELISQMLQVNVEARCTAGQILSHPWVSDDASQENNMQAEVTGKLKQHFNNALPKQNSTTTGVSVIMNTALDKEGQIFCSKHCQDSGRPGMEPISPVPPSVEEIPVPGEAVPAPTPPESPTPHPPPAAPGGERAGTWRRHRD

[9] = molecular target: Ribosomal protein S6 kinase alpha-6 (Homo sapiens, UniProt Q9UK32); experiment: Selectivity interaction (Kinase panel (Z-LYTE Assay)) EUB0001632a RPS6KA6; settings: at 10 µM
Insulin receptor = Insulin receptor (Homo sapiens, UniProt P06213); experiment: Selectivity interaction (ProQinase) EUB0000171b INSR
Sequence of Insulin receptor (P06213 28-758 limits assumed): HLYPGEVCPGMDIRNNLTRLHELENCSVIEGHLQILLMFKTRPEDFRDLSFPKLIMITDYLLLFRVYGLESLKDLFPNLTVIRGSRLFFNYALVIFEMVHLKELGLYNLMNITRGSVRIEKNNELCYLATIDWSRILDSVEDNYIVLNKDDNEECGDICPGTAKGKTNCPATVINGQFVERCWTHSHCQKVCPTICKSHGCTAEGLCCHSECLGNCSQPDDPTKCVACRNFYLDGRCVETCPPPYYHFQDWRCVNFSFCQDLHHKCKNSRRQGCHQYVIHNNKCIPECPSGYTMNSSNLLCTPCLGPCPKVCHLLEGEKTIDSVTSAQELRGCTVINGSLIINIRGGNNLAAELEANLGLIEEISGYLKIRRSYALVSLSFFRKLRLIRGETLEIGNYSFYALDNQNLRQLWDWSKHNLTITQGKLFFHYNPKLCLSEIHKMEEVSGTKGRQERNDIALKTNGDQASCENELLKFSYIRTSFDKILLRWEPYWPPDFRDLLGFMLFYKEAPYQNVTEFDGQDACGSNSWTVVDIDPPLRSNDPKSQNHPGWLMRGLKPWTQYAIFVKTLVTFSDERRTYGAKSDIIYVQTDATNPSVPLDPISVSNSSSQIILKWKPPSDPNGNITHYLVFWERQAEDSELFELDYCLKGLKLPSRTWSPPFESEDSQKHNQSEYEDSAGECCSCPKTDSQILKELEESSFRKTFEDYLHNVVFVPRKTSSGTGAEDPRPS
Sequence of Insulin receptor (P06213 763-1382 limits assumed): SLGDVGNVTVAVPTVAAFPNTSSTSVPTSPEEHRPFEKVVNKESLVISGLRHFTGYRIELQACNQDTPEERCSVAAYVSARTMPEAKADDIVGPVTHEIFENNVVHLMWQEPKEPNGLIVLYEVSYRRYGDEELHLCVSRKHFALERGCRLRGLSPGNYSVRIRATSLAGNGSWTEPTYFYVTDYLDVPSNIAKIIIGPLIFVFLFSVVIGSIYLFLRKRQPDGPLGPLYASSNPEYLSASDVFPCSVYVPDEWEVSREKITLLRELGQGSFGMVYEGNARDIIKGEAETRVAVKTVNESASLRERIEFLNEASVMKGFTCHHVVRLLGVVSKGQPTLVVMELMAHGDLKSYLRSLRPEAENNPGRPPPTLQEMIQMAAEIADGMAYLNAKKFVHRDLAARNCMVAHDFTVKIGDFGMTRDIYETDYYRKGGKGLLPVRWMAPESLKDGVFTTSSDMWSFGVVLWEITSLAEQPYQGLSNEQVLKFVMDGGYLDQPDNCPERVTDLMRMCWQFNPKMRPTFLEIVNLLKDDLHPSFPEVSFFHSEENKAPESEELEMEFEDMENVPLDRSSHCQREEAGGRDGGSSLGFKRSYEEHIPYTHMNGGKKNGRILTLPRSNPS

Sequence of Casein kinase II subunit alpha (P68400 whole entry, looked up): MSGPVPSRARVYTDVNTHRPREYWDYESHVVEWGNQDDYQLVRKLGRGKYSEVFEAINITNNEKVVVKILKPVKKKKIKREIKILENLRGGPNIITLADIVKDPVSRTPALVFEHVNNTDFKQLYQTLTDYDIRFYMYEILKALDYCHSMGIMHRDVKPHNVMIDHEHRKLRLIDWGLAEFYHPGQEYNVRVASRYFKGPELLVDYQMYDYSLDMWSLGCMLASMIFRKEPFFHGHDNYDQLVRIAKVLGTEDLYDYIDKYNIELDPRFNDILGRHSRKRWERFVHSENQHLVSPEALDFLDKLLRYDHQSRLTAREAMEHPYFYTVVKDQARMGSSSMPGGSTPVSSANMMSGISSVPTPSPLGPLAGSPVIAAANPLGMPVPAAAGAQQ
Sequence of Ephrin type-A receptor 2 (Homo sapiens) (P29317 whole entry): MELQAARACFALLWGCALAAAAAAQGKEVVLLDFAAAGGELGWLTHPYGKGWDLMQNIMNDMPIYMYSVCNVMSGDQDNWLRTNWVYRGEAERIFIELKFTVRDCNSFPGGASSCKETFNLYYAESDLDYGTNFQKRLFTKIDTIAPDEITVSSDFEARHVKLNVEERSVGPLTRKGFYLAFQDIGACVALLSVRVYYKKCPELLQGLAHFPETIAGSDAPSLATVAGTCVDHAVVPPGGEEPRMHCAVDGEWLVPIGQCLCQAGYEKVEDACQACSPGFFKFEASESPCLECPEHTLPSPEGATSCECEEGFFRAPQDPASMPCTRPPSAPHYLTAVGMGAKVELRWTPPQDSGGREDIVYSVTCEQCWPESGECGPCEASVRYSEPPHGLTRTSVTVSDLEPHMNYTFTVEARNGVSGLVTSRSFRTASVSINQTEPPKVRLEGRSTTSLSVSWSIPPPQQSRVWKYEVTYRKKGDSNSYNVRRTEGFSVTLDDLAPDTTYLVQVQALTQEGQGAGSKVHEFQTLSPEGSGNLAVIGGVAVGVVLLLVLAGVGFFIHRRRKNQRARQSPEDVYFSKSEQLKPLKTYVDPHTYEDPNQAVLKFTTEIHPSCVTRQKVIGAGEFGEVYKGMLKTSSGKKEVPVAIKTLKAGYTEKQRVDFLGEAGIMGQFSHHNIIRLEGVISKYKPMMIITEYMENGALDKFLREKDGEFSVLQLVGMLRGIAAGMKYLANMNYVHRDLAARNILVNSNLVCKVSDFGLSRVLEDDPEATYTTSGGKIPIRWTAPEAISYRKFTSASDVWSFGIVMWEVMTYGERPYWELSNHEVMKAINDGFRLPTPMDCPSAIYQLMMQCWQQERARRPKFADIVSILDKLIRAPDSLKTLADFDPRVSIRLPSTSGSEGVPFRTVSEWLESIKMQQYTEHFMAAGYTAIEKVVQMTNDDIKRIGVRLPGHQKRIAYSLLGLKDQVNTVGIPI
Sequence of Fibroblast growth factor receptor 1 (P11362 22-822 limits assumed): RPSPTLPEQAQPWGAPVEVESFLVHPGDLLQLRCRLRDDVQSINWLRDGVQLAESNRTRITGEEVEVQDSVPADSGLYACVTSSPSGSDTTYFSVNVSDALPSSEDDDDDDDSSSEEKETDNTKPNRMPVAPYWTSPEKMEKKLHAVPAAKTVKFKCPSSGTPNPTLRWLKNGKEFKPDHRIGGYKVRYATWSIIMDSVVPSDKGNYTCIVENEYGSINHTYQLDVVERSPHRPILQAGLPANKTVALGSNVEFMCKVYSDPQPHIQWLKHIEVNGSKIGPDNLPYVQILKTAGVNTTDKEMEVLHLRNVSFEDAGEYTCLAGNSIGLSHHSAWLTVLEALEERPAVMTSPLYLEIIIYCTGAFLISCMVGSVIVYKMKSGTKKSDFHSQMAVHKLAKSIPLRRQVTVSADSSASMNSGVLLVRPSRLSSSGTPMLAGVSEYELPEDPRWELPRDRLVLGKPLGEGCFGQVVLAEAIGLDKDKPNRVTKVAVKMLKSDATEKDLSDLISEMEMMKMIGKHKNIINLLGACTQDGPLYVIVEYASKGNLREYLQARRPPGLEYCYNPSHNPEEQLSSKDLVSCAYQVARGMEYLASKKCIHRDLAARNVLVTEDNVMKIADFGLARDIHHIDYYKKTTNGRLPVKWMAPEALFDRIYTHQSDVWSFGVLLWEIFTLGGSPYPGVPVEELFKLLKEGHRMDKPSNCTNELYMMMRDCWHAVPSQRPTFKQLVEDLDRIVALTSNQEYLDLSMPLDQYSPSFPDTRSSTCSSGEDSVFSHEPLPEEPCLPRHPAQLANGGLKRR
Sequence of Glycogen synthase kinase-3 alpha (P49840 2-483 limits assumed): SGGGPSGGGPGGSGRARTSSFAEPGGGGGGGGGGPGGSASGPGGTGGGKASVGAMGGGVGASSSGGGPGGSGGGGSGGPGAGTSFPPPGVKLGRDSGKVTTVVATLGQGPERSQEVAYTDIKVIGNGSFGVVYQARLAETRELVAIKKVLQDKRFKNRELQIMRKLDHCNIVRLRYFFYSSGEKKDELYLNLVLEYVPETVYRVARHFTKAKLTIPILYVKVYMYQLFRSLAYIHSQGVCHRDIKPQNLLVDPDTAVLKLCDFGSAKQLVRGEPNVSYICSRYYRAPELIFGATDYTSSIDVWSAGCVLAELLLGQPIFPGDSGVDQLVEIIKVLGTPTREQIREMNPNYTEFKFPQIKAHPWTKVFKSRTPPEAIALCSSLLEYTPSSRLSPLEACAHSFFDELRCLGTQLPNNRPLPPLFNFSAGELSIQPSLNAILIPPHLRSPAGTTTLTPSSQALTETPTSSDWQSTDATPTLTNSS
Sequence of Ribosomal protein S6 kinase alpha-5 (Homo sapiens) (O75582 whole entry, looked up): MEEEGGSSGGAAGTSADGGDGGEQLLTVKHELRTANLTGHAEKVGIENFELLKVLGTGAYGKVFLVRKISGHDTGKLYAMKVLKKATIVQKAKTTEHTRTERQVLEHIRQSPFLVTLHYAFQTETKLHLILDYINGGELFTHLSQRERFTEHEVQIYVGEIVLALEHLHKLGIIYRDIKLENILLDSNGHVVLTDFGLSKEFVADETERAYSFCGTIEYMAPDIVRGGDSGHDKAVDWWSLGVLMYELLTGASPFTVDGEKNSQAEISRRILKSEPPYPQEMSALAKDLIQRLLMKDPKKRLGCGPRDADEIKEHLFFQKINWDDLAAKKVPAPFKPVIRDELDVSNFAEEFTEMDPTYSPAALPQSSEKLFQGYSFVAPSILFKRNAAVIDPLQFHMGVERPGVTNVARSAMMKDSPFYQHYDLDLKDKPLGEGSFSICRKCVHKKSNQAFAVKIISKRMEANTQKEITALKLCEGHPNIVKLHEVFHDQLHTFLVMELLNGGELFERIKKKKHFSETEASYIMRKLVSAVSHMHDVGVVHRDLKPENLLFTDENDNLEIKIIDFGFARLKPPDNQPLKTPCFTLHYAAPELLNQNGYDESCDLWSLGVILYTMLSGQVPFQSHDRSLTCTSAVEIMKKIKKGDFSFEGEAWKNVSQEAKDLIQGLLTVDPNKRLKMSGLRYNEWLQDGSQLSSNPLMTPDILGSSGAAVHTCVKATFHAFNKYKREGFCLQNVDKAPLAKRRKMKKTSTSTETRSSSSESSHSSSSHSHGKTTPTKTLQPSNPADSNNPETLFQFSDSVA

Nc1cnc(N2CCc3cc(S(=O)(=O)Nc4c(F)cc(Cl)cc4F)cc(N4CCCC4=O)c32)nc1 [TP-020n] showed a % of control [1] of 100%.

Compound C=CC(=O)Nc1ccc(C(=O)Nc2[nH]nc3c2CN(C(=O)N[C@H](CN(C)C)c2ccccc2)C3(C)C)cc1 has a % of engagement [2] of -9.5%.

CC[C@@H]1[C@H](F)C(=O)N[C@@H]1COc1nccc2cc(C(N)=O)c(OC)cc12 [ZIMLOVISERTIB] gave a % of inhibition [3] of -17.4%.

CN(C)C/C=C/C(=O)Nc1ccc(C(=O)N2CCCC(Nc3ncc(Cl)c(-c4c[nH]c5ccccc45)n3)C2)cc1 (stereo unspecified) gave a % of control [4] of 86%.

Cc1cc([C@@H](C)Nc2ccccc2C(=O)O)c2nc(N3CCOCC3)cc(=O)n2c1 [AZD-6482] gave a % of control [5] of 100%.

CNC(=O)Nc1ccc(-c2nc(N3CC4CCC(C3)O4)c3cnn(C4CCC5(CC4)OCCO5)c3n2)cc1 showed a % of control [6] of 100%, a % of inhibition [7] of 1% and a % of control [8] of 97%.

Work on Cn1cc(-n2cnc3c(NCc4nc5cc(Cl)c(Cl)cc5[nH]4)nc(N4CCOCC4)nc32)cn1 yielded a % of control [9] of 9.97%.

With C=CC(=O)Nc1cccc(C(=O)Nc2ccc(Nc3cc(-c4[nH]c(SC)nc4C)ccn3)cc2)c1 the % of control (Insulin receptor; at 1 µM) was 91% and the % of control (Insulin receptor; at 5 µM) was 83%.
